Consider 2 compounds from PMC9606955, “In Vitro Activity of Essential Oils Distilled from Colombian Plants against Candida auris and Other Candida Species with Different Antifungal Susceptibility Profiles” (Molecules, 2022).

One data set has as its system C. krusei ATCC 6258. Description: MIC, CLSI M27 broth microdilution. The data set is classed as cell-based, Candida krusei. To be noted: for MIC: Pichia kudriavzevii, read-out: GM MIC. The source says: (§1) The fungal strains used in this study were C. albicans ATCC 10231, C. albicans ATCC 64550, C. parapsilosis ATCC 22019, C. tropicalis ATCC 750, C. tropicalis ATCC 200956 (resistant to azoles and AMB), C. glabrata LMDM 34 (resistant to echinocandins), C. metapsilosis MUM 15.12, C. orthopsilosis MUM 17.13, C. lusitaniae MUM 17.08, C. krusei ATCC 6258 (Issatchenkia orientalis ATCC 6258), and C. auris CDC B11903. Additionally, nine clinical isolates were included: C. parapsilosis Synlab 406 (FLC-resistant) and eight C. auris isolates identified by MALDI-TOF MS (Bruker Daltonics, Bremen, Germany) according to Zhao et al.. These yeasts were cultured on Sabouraud Dextrose Agar (SDA; Sigma-Aldrich, St. Louis, MO, USA) for 24 h at 35 °C.
(§2) Antifungal susceptibility testing was performed according to Clinical and Laboratory Standards Institute M27, 4th Edition (CLSI standard M27, 4th Edition). Some modifications were applied for evaluation of the antifungal activity of EOs and terpenes. Initially, a screening was carried out to determine the antifungal activity of the EOs and of commercial terpenes. Stock concentrations of EOs and terpenes were prepared at 512 µg/mL and an inoculum of 2.5 × 10^3 CFU/mL of each yeast was prepared in RPMI 1640-MOPS (Sigma- Aldrich St. Louis, MO, USA). Thereafter, 100 µL of each stock solution of EOs or terpenes was dispensed in 96-well microdilution plates (Corning®, Costar®, NY, USA) and 100 µL of each yeast inoculum was added. […] Microdilution plates were incubated at 35 °C and, after 24 h, the presence or absence of growth was visually checked using a manual mirror viewer and then compared with the amount of growth in the control (no EO or terpene). Compounds able to inhibit yeast growth were tested to determine the minimal inhibitory concentration (MIC) as follows: 100 µL of 10 two-fold dilutions of the EOs or commercial terpenes was dispensed in 96-well microplates and the yeast inoculum was added. Final concentrations of the EOs or terpenes ranged from 0.5 µg/mL to 256 µg/mL. Microdilution plates were incubated at 35 °C for 24 h. MICs were visually determined at the lowest concentration that produced visual inhibition compared to the growth control. The assays were performed at least three times in duplicate on different days. The results were expressed as geometric means (GM) and ranges. As an antifungal susceptibility testing control, the activity of ITC and AMB against the reference strains C. krusei ATCC 6258 and C. parapsilosis ATCC 22019 was evaluated in all experiments following the CLSI standard M27, 4th Edition. It was mandatory that the MIC values remained in the accepted range.
(In general: In broth dilution the organism is exposed to a series of concentrations in liquid medium.)

Data set [1] relates to C. tropicalis ATCC 200956. Description: MIC, CLSI M27 broth microdilution. It counts as cell-based, Candida tropicalis. The following applies: for MIC: Candida tropicalis, read-out: GM MIC.
Description: as §1, §2

For data set [2], the system named is C. metapsilosis MUM 15.12. Description: MIC, CLSI M27 broth microdilution. It counts as cell-based, Candida metapsilosis. The following applies: Lodderomyces metapsilosis, read-out: GM MIC.
Description: as §1, §2

Data set [3] deals with C. orthopsilosis MUM 17.13. Put plainly: MIC, CLSI M27 broth microdilution. The data set is classed as cell-based, Candida orthopsilosis. The following applies: Lodderomyces orthopsilosis, read-out: GM MIC.
Description: as §1, §2

Another data set has as its system C. lusitaniae MUM 17.08. Description: MIC, CLSI M27 broth microdilution. It counts as cell-based, Candida lusitaniae. To be noted: for MIC: Clavispora lusitaniae, read-out: GM MIC.
Description: as §1, §2

In a further data set the test system is C. auris CDC B11903. Put plainly: MIC, CLSI M27 broth microdilution. It counts as cell-based, Candida auris. The following applies: for MIC: Candidozyma auris, read-out: GM MIC.
Description: as §1, §2

A further data set concerns C. auris Ca 13. Put plainly: MIC, CLSI M27 broth microdilution. It counts as cell-based, Candida auris. To be noted: for MIC: Candidozyma auris, read-out: GM MIC.
Description: as §1, §2

The next data set relates to C. auris Ca 17. Put plainly: MIC, CLSI M27 broth microdilution. The following applies: Candidozyma auris, read-out: GM MIC. It counts as cell-based, Candida auris.
Description: as §1, §2

A further data set relates to C. auris Ca 1. Description: MIC, CLSI M27 broth microdilution. The data set is classed as cell-based, Candida auris.
Description: as §1, §2

Another data set deals with C. auris Ca 32. Description: MIC, CLSI M27 broth microdilution. It counts as cell-based, Candida auris. To be noted: Candidozyma auris, read-out: GM MIC.
Description: as §1, §2

For a further data set, the system named is C. auris Ca 41. Description: MIC, CLSI M27 broth microdilution. To be noted: for MIC: Candidozyma auris, read-out: GM MIC. It counts as cell-based, Candida auris.
Description: as §1, §2

Another data set relates to C. auris Ca 45. Put plainly: MIC, CLSI M27 broth microdilution. The following applies: for MIC: Candidozyma auris, read-out: GM MIC. The data set is classed as cell-based, Candida auris.
Description: as §1, §2

The next data set deals with C. auris Ca 46. Put plainly: MIC, CLSI M27 broth microdilution. It counts as cell-based, Candida auris. To be noted: Candidozyma auris, read-out: GM MIC.
Description: as §1, §2

The next data set concerns C. auris Ca 9. Put plainly: MIC, CLSI M27 broth microdilution. The following applies: Candidozyma auris, read-out: GM MIC. The data set is classed as cell-based, Candida auris.
Description: as §1, §2

For data set [4], the system named is C. parapsilosis Synlab 406. Description: MIC, CLSI M27 broth microdilution. To be noted: for MIC: Lodderomyces parapsilosis, read-out: GM MIC. It counts as cell-based, Candida parapsilosis.
Description: as §1, §2

A further data set deals with Candida spp. Put plainly: Screening of antifungal activity at 256 µg/mL against twenty strains. The data set is classed as cell-based. To be noted: screening at 256 µg/mL.
Description: as §1
Antifungal susceptibility testing was performed according to Clinical and Laboratory Standards Institute M27, 4th Edition (CLSI standard M27, 4th Edition). Some modifications were applied for evaluation of the antifungal activity of EOs and terpenes. Initially, a screening was carried out to determine the antifungal activity of the EOs and of commercial terpenes. Stock concentrations of EOs and terpenes were prepared at 512 µg/mL and an inoculum of 2.5 × 10^3 CFU/mL of each yeast was prepared in RPMI 1640-MOPS (Sigma- Aldrich St. Louis, MO, USA). Thereafter, 100 µL of each stock solution of EOs or terpenes was dispensed in 96-well microdilution plates (Corning®, Costar®, NY, USA) and 100 µL of each yeast inoculum was added. […] MICs were visually determined at the lowest concentration that produced visual inhibition compared to the growth control. […] The results were expressed as geometric means (GM) and ranges. As an antifungal susceptibility testing control, the activity of ITC and AMB against the reference strains C. krusei ATCC 6258 and C. parapsilosis ATCC 22019 was evaluated in all experiments following the CLSI standard M27, 4th Edition. […]

The next data set relates to C. auris. Details: method as in PMID 31980703. To be noted: cited from earlier work.
The nature of another data set: Cytotoxicity, MTT assay. To be noted: human, HaCaT keratinocyte cells.

Converted amounts (≈) assume the structure as drawn. Where two headings read alike, the source gives them in different places.

Description for Cytotoxicity, MTT assay: Cells were cultured in Dulbecco’s Modified Eagle Medium (DMEM; Sigma-Aldrich, St. Louis, MO, USA) supplemented with 10% fetal bovine serum (Invitrogen, Carlsbad, CA, USA), 1% penicillin, streptomycin, and neomycin (Invitrogen, Carlsbad, CA, USA), and 1% L-glutamine (Invitrogen, Carlsbad, CA, USA) at 37 °C in a humidified atmosphere of 5% CO2. […] Afterwards, the culture medium was removed and 3-(4.5-dimethylthiazol-2-yl)-2.5-diphenyltetrazolium bromide (MTT) (Sigma-Aldrich, St. Louis, MO, USA) at 5 mg/mL was added at 37 °C for 2 h. Subsequently, DMSO was added to dissolve the formazan crystals. Finally, the absorbances were measured with a Multiskan SkyHigh Microplate Spectrophotometer (Thermo Fisher Scientific, Waltham, MA, USA) at λ = 570 nm. The CC50 values were obtained by linear regression analysis with concentration–response curves, which were performed with absorbance data using GraphPad Prism software (Prism 9.3.0, San Diego, CA, USA). The assays were conducted at two separate times in triplicate. The data were expressed as means.

The MIC is the lowest concentration that inhibits growth of the organism. The term CC50 denotes the concentration giving 50% cytotoxicity. Read a low CC50 as greater toxicity to the cells. With `Cc1ccc(C(C)C)cc1O` [Carvacrol, carvacrol], the MIC in the data set with C. krusei ATCC 6258 (ATCC6258, 24 h) was found to be 256 µg/mL (≈ 1700 µM); in [1] (ATCC200956, 24 h), 128 µg/mL (≈ 852 µM); in [2] (MUM15.12, 24 h) it was 128 µg/mL (≈ 852 µM); in data set [3] (MUM17.13, 24 h) it was 128 µg/mL (≈ 852 µM); with C. lusitaniae MUM 17.08 (MUM17.08, 24 h), 181 µg/mL (≈ 1200 µM); with C. auris CDC B11903 (CDCB11903, 24 h), 90.5 µg/mL (≈ 602 µM). Moreover, the MIC in the data set with C. auris Ca 13 (CA13, 24 h) is 181 µg/mL (≈ 1200 µM); with C. auris Ca 17 (CA17, 24 h), 128 µg/mL (≈ 852 µM); in the data set on C. auris Ca 1 (Candidozyma auris, CA1, 24 h, read-out: GM MIC) it was 181 µg/mL (≈ 1200 µM); in the data set with C. auris Ca 32 (CA32, 24 h) it was 64 µg/mL (≈ 426 µM); in the data set on C. auris Ca 41 (CA41, 24 h) it was 90.5 µg/mL (≈ 602 µM); in the data set with C. auris Ca 45 (CA45, 24 h), 90.5 µg/mL (≈ 602 µM). In addition, the MIC in the data set on C. auris Ca 46 (CA46, 24 h) was 64 µg/mL (≈ 426 µM); in the data set with C. auris Ca 9 (CA9, 24 h), 256 µg/mL (≈ 1700 µM); in [4] (SYNLAB406, 24 h) it was 45.3 µg/mL (≈ 302 µM). For the same compound, the “Range MIC” value in the data set with C. lusitaniae MUM 17.08 (C. lusitaniae MUM 17.08, EOs and terpenes) is 128 to 256 µg/mL; in the data set on C. auris CDC B11903 (C. auris CDC B11903, EOs and terpenes), 64 to 128 µg/mL; in the data set on C. auris Ca 13 (C. auris Ca 13, EOs and terpenes), 128 to 256 µg/mL; with C. auris Ca 1 (C. auris Ca 1, EOs and terpenes), 128 to 256 µg/mL; with C. auris Ca 41 (C. auris Ca 41, EOs and terpenes), 64 to 128 µg/mL; in the data set on C. auris Ca 45 (C. auris Ca 45, EOs and terpenes), 64 to 128 µg/mL. Besides, the “Range MIC” value in [4] (C. parapsilosis Synlab 406, EOs and terpenes) was in the range of 32 to 64 µg/mL. Further, the “antifungal activity in screening” value in the data set on Candida spp. is recorded as “active against all tested Candida spp”. For the same compound, the MIC Range in the data set on C. auris was 63 to 250 µg/mL. The CC50 at 24 h in the data set “Cytotoxicity, MTT assay” came out at 411 µg/mL (≈ 2730 µM).

With `Cc1ccc(C(C)C)cc1` [p-Cymene, p-cymene], the “Range MIC” value in the data set with C. krusei ATCC 6258 (C. krusei ATCC 6258, EOs and terpenes) fell in the range of 128 to 256 µg/mL; in [1] (C. tropicalis ATCC 200956, EOs and terpenes), 128 to 256 µg/mL. The MIC came to 181 µg/mL (≈ 1350 µM) in the data set with C. krusei ATCC 6258 (ATCC6258, C. krusei ATCC 6258, EOs and terpenes, 24 h, top concentration 256 µg/mL); 181 µg/mL (≈ 1350 µM) in [1] (ATCC200956, C. tropicalis ATCC 200956, EOs and terpenes, 24 h, top concentration 256 µg/mL); 256 µg/mL (≈ 1910 µM) in data set [2] (MUM15.12, C. metapsilosis MUM 17.13 (Table 3), EOs and terpenes, 24 h, top concentration 256 µg/mL); 256 µg/mL (≈ 1910 µM) in [3] (MUM17.13, C. orthopsilosis MUM 15.12 (Table 3), EOs and terpenes, 24 h, top concentration 256 µg/mL); 256 µg/mL (≈ 1910 µM) in the data set with C. lusitaniae MUM 17.08 (MUM17.08, C. lusitaniae MUM 17.08, EOs and terpenes, 24 h, top concentration 256 µg/mL); 256 µg/mL (≈ 1910 µM) in the data set with C. auris CDC B11903 (CDCB11903, C. auris CDC B11903, EOs and terpenes, 24 h, top concentration 256 µg/mL). For the same compound, the MIC in the data set with C. auris Ca 13 (CA13, C. auris Ca 13, EOs and terpenes, 24 h, top concentration 256 µg/mL) was 256 µg/mL (≈ 1910 µM); in the data set with C. auris Ca 17 (CA17, C. auris Ca 17, EOs and terpenes, 24 h, top concentration 256 µg/mL) it was 256 µg/mL (≈ 1910 µM); in the data set on C. auris Ca 32 (CA32, C. auris Ca 32, EOs and terpenes, 24 h, top concentration 256 µg/mL) it was 128 µg/mL (≈ 954 µM); with C. auris Ca 41 (CA41, C. auris Ca 41, EOs and terpenes, 24 h, top concentration 256 µg/mL), 256 µg/mL (≈ 1910 µM); in the data set with C. auris Ca 45 (CA45, C. auris Ca 45, EOs and terpenes, 24 h, top concentration 256 µg/mL), 256 µg/mL (≈ 1910 µM); in the data set with C. auris Ca 46 (CA46, C. auris Ca 46, EOs and terpenes, 24 h, top concentration 256 µg/mL) it was 256 µg/mL (≈ 1910 µM). For the same compound, the MIC came to 256 µg/mL (≈ 1910 µM) with C. auris Ca 9 (CA9, C. auris Ca 9, EOs and terpenes, 24 h, top concentration 256 µg/mL); 256 µg/mL (≈ 1910 µM) in [4] (SYNLAB406, C. parapsilosis Synlab 406, EOs and terpenes, 24 h, top concentration 256 µg/mL). The CC50 at 24 h in “Cytotoxicity, MTT assay” was 831 µg/mL (≈ 6190 µM).
